Tests used:
[1] = molecular target: P450 isoenzyme 3A4 (Homo sapiens, UniProt P08684); conditions: cited from earlier work
[2] = molecular target: T1, P-gp (Homo sapiens, UniProt P08183); assay: substrate for P-gp efflux / duration of reversal activity in resistant cells; assay type: cell-based
T1 construct: relatively long duration of reversal activity in resistant cells even after the modulator has been withdrawn; endogenous in cells

[3] = pharmacokinetic interaction with co-administered oncolytics in preclinical models; assay type: in vivo; conditions: several oncolytics tested in preclinical models

Sequence of P450 isoenzyme 3A4 (P08684 whole entry): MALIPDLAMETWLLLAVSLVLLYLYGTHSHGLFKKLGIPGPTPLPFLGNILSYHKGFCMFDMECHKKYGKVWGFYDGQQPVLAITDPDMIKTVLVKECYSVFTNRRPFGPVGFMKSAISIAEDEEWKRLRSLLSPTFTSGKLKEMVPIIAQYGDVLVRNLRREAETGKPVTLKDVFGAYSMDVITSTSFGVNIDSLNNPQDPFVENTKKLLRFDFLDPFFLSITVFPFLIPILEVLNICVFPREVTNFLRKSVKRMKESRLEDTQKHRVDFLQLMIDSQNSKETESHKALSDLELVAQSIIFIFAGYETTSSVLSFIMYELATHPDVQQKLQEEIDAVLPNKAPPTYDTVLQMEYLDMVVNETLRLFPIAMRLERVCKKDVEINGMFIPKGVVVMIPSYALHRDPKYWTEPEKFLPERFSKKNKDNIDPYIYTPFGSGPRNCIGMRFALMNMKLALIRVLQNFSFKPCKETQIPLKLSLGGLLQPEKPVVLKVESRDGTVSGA
T1 sequence (P08183 whole entry): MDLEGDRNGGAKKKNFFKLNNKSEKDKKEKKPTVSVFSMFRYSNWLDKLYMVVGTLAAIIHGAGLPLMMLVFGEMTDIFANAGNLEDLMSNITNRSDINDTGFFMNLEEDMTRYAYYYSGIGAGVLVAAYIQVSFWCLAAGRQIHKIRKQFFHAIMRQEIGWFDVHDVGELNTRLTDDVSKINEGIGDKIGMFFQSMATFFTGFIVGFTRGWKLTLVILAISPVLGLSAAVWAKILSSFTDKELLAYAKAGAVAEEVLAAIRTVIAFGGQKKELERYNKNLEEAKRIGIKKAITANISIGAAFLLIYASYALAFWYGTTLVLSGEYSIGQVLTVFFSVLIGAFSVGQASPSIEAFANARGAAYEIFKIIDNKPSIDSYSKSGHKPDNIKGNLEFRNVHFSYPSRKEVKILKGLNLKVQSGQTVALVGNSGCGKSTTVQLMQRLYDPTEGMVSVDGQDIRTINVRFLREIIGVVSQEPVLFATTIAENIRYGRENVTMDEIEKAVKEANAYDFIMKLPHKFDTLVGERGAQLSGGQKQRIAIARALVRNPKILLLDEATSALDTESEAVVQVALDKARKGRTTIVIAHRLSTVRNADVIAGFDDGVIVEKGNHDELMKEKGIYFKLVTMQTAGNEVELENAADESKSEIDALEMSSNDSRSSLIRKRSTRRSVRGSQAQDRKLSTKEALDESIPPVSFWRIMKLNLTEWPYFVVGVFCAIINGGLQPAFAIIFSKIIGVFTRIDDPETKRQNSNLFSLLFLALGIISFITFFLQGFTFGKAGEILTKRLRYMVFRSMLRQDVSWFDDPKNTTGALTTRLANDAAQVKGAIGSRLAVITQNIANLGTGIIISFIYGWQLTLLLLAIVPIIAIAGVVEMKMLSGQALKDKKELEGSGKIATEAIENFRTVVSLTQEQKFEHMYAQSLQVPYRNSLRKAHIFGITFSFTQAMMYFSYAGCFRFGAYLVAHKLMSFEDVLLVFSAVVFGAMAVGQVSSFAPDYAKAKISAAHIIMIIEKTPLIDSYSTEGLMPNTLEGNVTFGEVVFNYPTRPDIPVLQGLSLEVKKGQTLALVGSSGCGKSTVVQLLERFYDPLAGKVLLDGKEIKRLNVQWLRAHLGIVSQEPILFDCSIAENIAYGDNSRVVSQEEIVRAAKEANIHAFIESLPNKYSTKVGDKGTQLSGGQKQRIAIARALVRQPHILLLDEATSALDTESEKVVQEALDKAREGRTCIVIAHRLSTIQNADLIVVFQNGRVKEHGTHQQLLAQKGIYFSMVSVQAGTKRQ

COc1cc(C(=O)C(=O)N2CCCC[C@H]2C(=O)OC(CCCc2cccnc2)CCCc2cccnc2)cc(OC)c1OC [biricodar]
substrate for P450 isoenzyme 3A4 [1]: substrates for the P450 isoenzyme 3A4

C/C=C/C[C@@H](C)C(=O)[C@H]1C(=O)N[C@@H](C(C)C)C(=O)N(C)CC(=O)N(C)[C@@H](CC(C)C)C(=O)N[C@@H](C(C)C)C(=O)N(C)[C@@H](CC(C)C)C(=O)N[C@@H](C)C(=O)N[C@H](C)C(=O)N(C)[C@@H](CC(C)C)C(=O)N(C)[C@@H](CC(C)C)C(=O)N(C)[C@@H](C(C)C)C(=O)N1C [valspodar]
substrate for P450 isoenzyme 3A4 [1]: substrates for the P450 isoenzyme 3A4

O[C@@H](COc1cccc2ncccc12)CN1CCN([C@@H]2c3ccccc3[C@@H]3[C@H](c4ccccc42)C3(F)F)CC1 [zosuquidar, (2R)-anti-5-3-[4-(10,11-difluoromethanodibenzosuber-5-y1)piperazin-1-y1]-2-hydroxypropoxy)quinoline]
substrate for P-gp efflux [2]: does not appear to be a substrate for P-gp efflux
pharmacokinetic (PK) interactions with oncolytics [3]: minimal pharmacokinetic (PK) interactions
